Experimental findings from BindingDB's records for doi:10.1021/acsmedchemlett.8b00220 (Merck, 2018) are described below.

pIC50: −log10 of the molar value. Where only a bound is given, the exact number is not on record here.

Data set [1] in a line: Inhibition of CYP3A4 (unknown origin) co-incubated with substrate.
Data set [2] in a line: Inhibition of CYP3A4 (unknown origin) preincubated followed by substrate addition.

Turning to `CS[C@@]1(C(=O)Nc2ccc3[nH]nc(-c4ccc(F)cc4)c3c2)CCN(CC(=O)N2CC=C(c3ccc(-c4ncccn4)cc3)CC2)C1` [US8546404, 613], the pIC50 in data set [1] is less than 4.52; in data set [2], 5.70.

One may read the pIC50 as the IC50 on a negative log10 scale, so that one unit is a factor of ten.
